Measured values from patent US20120083508A1, “ALPHA-2B RECEPTOR AGONIST AND ANTICONVULSANT COMPOSITIONS FOR TREATING CHRONIC PAIN” (ALLERGAN, INC., priority 2006, published 2012).

Legend:
[1] = tested on: Chung rat model of chronic pain; experiment: Chung rat model of chronic pain (allodynia reversal); type: in vivo; conditions: for PAIN REVERSAL: Compound No. 27 10 μg/kg given immediately after Gabapentin 10 mg/kg, rats; for pain relief when administered alone at the dose used in the combination: intraperitoneally, doses of Table 4 (No. 95 1 μg/kg, No. 27 10 μg/kg)
[2] = tested on: Chung rat model of chronic pain; experiment: as above; type: in vivo; conditions: for PAIN REVERSAL: rats
Procedure: Gabapentin was administered intraperitoneally to rats at a minimally effective dose; that is, the compound was administered at a dose that, when administered alone, is the minimum dose required to relieve pain (this dose was calculated by finding, first, the dose that produced drug's maximum effect—that is, the dose that fully alleviated pain—and dividing that dose by three; the result is a dose that is slightly less than 50% of the dose that is required to produce the drug's maximum effect). The rats then immediately received one of two alpha-2B receptor agonists, Compound No. 95 and Compound No. 27, or received no additional compound, at all. […] Pain reversal was then assessed using the Chung rat model of chronic pain. The model is described by Kim and Chung, Pain, […], at 355-363 (1992) and in U.S. Pat. No. 7,091,232, both of which are incorporated by reference herein.
The right-hand column in Table 5 provides the P values showing statistical significance comparing the effect of the alpha-2B receptor agonist+Gabapentin to the effect of Gabapentin alone. The significance was determined using a 2-sided unpaired Student t test.
(§1) A minimal effect is typically <50% reversal of allodynia. Optimal effects are typically >80% reversal of allodynia. Gabapentin by itself is not fully effective so its peak effect is about 62% reversal of allodynia. An ineffective intraperitoneal (IP) Gabapentin dose is 3 mg/kg. A minimally effective dose is 10 mg/kg and its peak effect is achieved with 30 mg/kg. […] Locomotor activity is determined automatically by placing the rat in a digicom analyzer chamber (Omnitech Electronic). These chambers have photocells criss-crossing the box that are broken as the animal moves around. The computer analyses this movement and records total activity over 5-minute time periods.

locomotor activity = experiment: Locomotor / exploratory activity in a novel chamber (digicom analyzer); type: in vivo, rat
Procedure: as §1

[3] = IP 1 ug/kg + Gabapentin 10 mg/kg

With C1=NC(CC2CCc3ccccc3C2)CN1 (stereo not drawn) [Compound 27] the “PAIN REVERSAL” value [1] was 78%, the “PAIN REVERSAL” value ([1]; listed as Compound No. 27) was 78% and the “% Allodynia Reversal (30 min peak)” value ([1]; IP 10 ug/kg + Gabapentin 10 mg/kg) was 77.50 ± 4.7%. For the same compound, the “% Allodynia Reversal (30 min peak)” value ([1]; IP, 10 ug/kg, alone) was 43.75 ± 7.4%, the “% Allodynia Reversal (30 min peak)” value ([1]; IP, 30 ug/kg, alone) was 74.59 ± 7.4% and the “% Allodynia Reversal (30 min peak)” value ([1]; IP, 100 ug/kg, alone) was 90.86 ± 5.9%. The “pain relief when administered alone at the dose used in the combination” value ([1]; alone) was “not effective in relieving pain”.
With C[C@@H](c1c[nH]c(=S)[nH]1)c1cccc2ncccc12 [Compound 95] the “% Allodynia Reversal (30 min peak)” value [1, 3] was 75.46 ± 5.3%, the “% Allodynia Reversal (30 min peak)” value ([1]; PO, 1 ug/kg, alone) was 1.52 ± 1.0% and the “% Allodynia Reversal (30 min peak)” value ([1]; PO, 3 ug/kg, alone) was 58.21 ± 5.3%. The “% Allodynia Reversal (30 min peak)” value ([1]; PO, 10 ug/kg, alone) was 78.43 ± 4.6%, the “% Allodynia Reversal (30 min peak)” value ([1]; PO, 30 ug/kg, alone) was 81.53 ± 6.2% and the “% Allodynia Reversal (30 min peak)” value ([1]; PO, 100 ug/kg, alone) was 81.26 ± 8.8%. For the same compound, the “pain relief when administered alone at the dose used in the combination” value ([1]; alone) was “not effective in relieving pain” and the “PAIN REVERSAL” value ([2]; Compound No. 95 1 μg/kg given immediately after Gabapentin 10 mg/kg) was 75%.
In the case of OCCNC(=S)NCc1cccc(Cl)c1F [Compound 131], the “% Allodynia Reversal (30 min peak)” value ([1]; IP, 1 ug/kg, alone) is reported as 3.92 ± 1.8%, the “% Allodynia Reversal (30 min peak)” value ([1]; IP, 3 ug/kg, alone) is reported as 54.67 ± 6.1% and the “% Allodynia Reversal (30 min peak)” value ([1]; IP, 10 ug/kg, alone) is reported as 85.24 ± 6.0%. For the same compound, the “% Allodynia Reversal (30 min peak)” value ([1]; IP, 30 ug/kg, alone) was 90.04 ± 6.1%, the “% Allodynia Reversal (30 min peak)” value ([1]; IP, 100 ug/kg, alone) was 95.31 ± 4.7% and the “% Allodynia Reversal (30 min peak)” value ([1]; IP, 300 ug/kg, alone) was 91.7 ± 5.3%. The “% Allodynia Reversal (30 min peak)” value [2, 3] was 88.00 ± 5.4%.
NCC1(CC(=O)O)CCCCC1 [Gabapentin] was tested, and the “sedative effects (locomotor activity)” value (locomotor activity; 100 mg/kg) was “significantly reduced locomotor activity”, the “reduction in exploratory activity compared to vehicle treated rats” value (locomotor activity; 100 mg/kg intraperitoneally 15 minutes before novel chamber, between 40-60 minutes after dosing) was > 50% and the “peak effect, reversal of allodynia” value ([1]; Gabapentin by itself, IP, peak effect achieved with 30 mg/kg) was “about 62%”. The “% Allodynia Reversal (30 min peak)” value ([1]; IP, 1 mg/kg, alone) was 5.89 ± 1.3%, the “dose at which peak effect is achieved” value ([1]; IP, alone) was 30 mg/kg and the “ineffective intraperitoneal (IP) dose” value ([1]; IP, alone) was 3 mg/kg. The minimally effective dose ([1]; IP, alone, minimal effect is <50% reversal of allodynia) was 10 mg/kg, the “PAIN REVERSAL” value ([2]; Gabapentin 10 mg/kg intraperitoneally, alone) was 45% and the “PAIN REVERSAL” value ([2]; Gabapentin 10 mg/kg intraperitoneally, alone, listed as gabapentin) was 45%. For the same compound, the “% Allodynia Reversal (30 min peak)” value ([2]; IP, 10 mg/kg, alone) was 40.8 ± 9.3% and the “% Allodynia Reversal (30 min peak)” value ([2]; IP, 30 mg/kg, alone) was 61.56 ± 5.7%.
